Residues, ends and D or L forms follow the SMILES beside them.
Key:
[1] = test system: Escherichia coli; experiment: Bacterial growth inhibition (OD600), E. coli; assay type: cell-based; details: 0-50 µM overnight, OD 600, n = 3
Description: We further looked at mRNA abundance by quantitative RT-PCR (qRT-PCR) to evaluate gene expression for type 1 interferon IFNB1, chemokine CXCL10, and cytokines TSLP and IL6 in NHEKs treated with selected LL-34 parent, LL-34—F5A, I24A, F27A, and L31A—peptides either alone or in combination with U1 dsRNA for 18 h (Fig. 1, E–H).
Methicillin-resistant S. aureus USA300 and methicillin-sensitive S. aureus SA113 (American Type Culture Collection 35556) were cultured in 3% tryptic soy broth overnight at 37 °C with shaking at 250 rpm. GAS M49 strain NZ131 was cultured in Todd Hewitt broth supplemented with 1% yeast extract overnight at 37 °C without shaking. E. coli R1 strain RS218 was cultured in LB broth overnight at 37 °C with shaking at 250 rpm. MIC values were determined using a round-bottom 96-well microdilution method with RPMI cell culture media (as a source of Ca^2+ and Mg^2+) supplemented with tryptic soy broth, Todd Hewitt broth/yeast extract, or LB to facilitate growth of the respective bacterial strains. Overnight bacterial cultures were subcultured into fresh broth and grown to midlate log phase indicated by an absorbance at 600 nm value between 0.8 and 1.0 for each bacterial strain. The absorbance was then normalized to provide a concentration of 1 × 10^7 colony-forming units/ml in RPMI medium. The LL-34 parent and alanine scan mutants were serially diluted into the 96-well microtiter plates containing prewarmed RPMI bacterial growth medium. A 10 μl aliquot of the midlate log phase bacteria was inoculated into the 96-well microtiter plates that contained 95 μl of RPMI medium with or without the LL-34 peptide dilutions and incubated for 16 to 18 h at […] with shaking at 200 rpm. Inhibition of growth was determined by measuring the absorbance at 600 nm readings of each well using a microplate reader (Infinite M200 Pro; Tecan). The MIC of each bacterial strain was determined by the lowest peptide concentration that inhibited more than 80% bacterial growth.
(A) NHEKs and HDMECs (B) were treated with LL34- parent peptide and all the 34 alanine substituted peptides (Pep L1A-Pep R34A) and LL37 at 2 µM for 16 h. IL-6 protein secretion was assessed with ELISA (n=3) (C-F) LL34-Parent, LL34 F5A, LL34 I24A, LL34 F27A, and LL34 L31A peptides were incubated with S. aureus USA 300, S. aureus SA113, Group A Streptococcus (GAS) and E. coli at increasing concentrations (0-50 µM) overnight, and bacterial culture growth was assayed as absorbance at OD 600 (n=3).

[2] = test system: C57BL/6 mouse ear skin inflammation; experiment: Intradermal ear injection with U1 dsRNA in mice; assay type: in vivo; details: 24 h; for Gene expression of IL-6 and CXCL10 in mouse ears: C57BL/6 female mice, intradermal ear coinjection of 25 μg U1 dsRNA and 16 μM peptide, qRT-PCR, mutants compared with U1 dsRNA + LL-34 parent; for Mast cells in mouse ear skin (flow cytometry) / Macrophage and neutrophil recruitment in mouse ear skin (flow cytometry): C57BL/6 mice, intradermal coinjection of 25 μg U1 dsRNA and 16 μM peptide, n = 3; for Mast cells in mouse ear skin (flow cytometry): frequency of gated live cells; for Macrophage and neutrophil recruitment in mouse ear skin (flow cytometry): mutants compared with LL-34 parent + U1 dsRNA
Description: C57BL/6 female mice at 8 weeks old were injected in the ears intradermally with a single injection of 25 μg of U1 dsRNA and/or LL-34 parent, Pep I24A, or Pep L31A. We investigated gene expression of IL-6, CXCL10, and TSLP in these mice (Fig. 2, B–D). […] This was in agreement with the in vitro results (Fig. 1). We also looked at the infiltration of immune cells to the mouse ear skin with flow cytometry.
Figure 2 LL-34-I24A and LL-34-L31A peptides loose vetting activity in vivo. C57BL/6 mice ears were injected intradermally with either 25 μg of U1 dsRNA, 16 μM LL-34-parent, LL-34-I24A, and LL-34-L31A as shown in the figure for 24 h (n = 6). A, H&E staining of cross sections of mice injected with U1 dsRNA or LL-34 peptides is shown. The bar represents […]. B–D, gene expression changes for IL-6, CXCL10, and TSLP were assessed with qRT-PCR. GAPDH was used as a reference gene. E–G, flow cytometry analysis was performed to assess the infiltration of immune cells in mouse ears injected with U1 dsRNA alone or a combination of U1 dsRNA and LL-34 peptides. Data are represented as the frequency of gated live cells for mast cells, macrophages, and neutrophils. (n = 3) (∗p < 0.05; ∗∗p < 0.01; ∗∗∗p < 0.001; ∗∗∗∗p < 0.0001). One way-ANOVA was used. LL-34, 34-amino acid peptide; ns, not significant.
All mouse procedures were approved by the University of California, San Diego (UCSD) Institutional Animal Care and Use Program (protocol number: S09074). Eight-week-old female C57BL/6 wildtype mice were used for experiments. C57BL/6 mice ears were injected intradermally with U1 dsRNA and/or LL-34 peptides as described previously ([7]). Single injections were performed. A total of 30 μl was injected in the middle part of the ear. Twenty-four hours after the injection, mice were euthanized with CO2 asphyxiation and ears excised and immediately collected in cold RPMI complete medium on ice and processed for immunohistochemistry, gene expression analysis, and flow cytometry within 1 h.
Mouse ears were collected following euthanasia in cold complete RPMI media on ice and cut into small pieces within 60 min, then digested with 2.5 mg/ml collagenase D, and 30 ng/ml DNase1 for 2 h at 37 °C and then filtered through a 30 μm filter to generate single-cell suspension for fluorescence-activated cell sorting analyses. Cells were then stained with Fixable Viability Dye eFluor 506 (eBioscience; 65-0866-14) blocked with antimouse CD16/32 (eBioscience; 14016185, 1:50 dilution), followed by staining with antibody cocktails for immune cells. The antibody cocktail for immune cells included PECy7-CD11b (BioLegend; 101216, 1:200 dilution), FITC-Ly6G (eBioscience; 11593182, 1:150 dilution), PE-F4/80 (eBioscience; 12480182, 1:200 dilution), APC-CD11C (BioLegend; 117310, 1:100 dilution), AF700-MHCII (eBioscience; 56532182, 1:100 dilution), and c-Kit (Biolegend; 10581, 1:100 dilution). Fluorescence-activated cell sorting analyses for surface expression of immune cell markers were performed by the Biorad ZE5 machine and analyzed by FlowJo V10 software (BD Biosciences). Dead cells were gated out from the analyses.

## CC[C@H](C)[C@H](NC(=O)[C@H](CCCCN)NC(=O)[C@H](CCC(=O)O)NC(=O)[C@H](CCCCN)NC(=O)[C@H](CO)NC(=O)[C@H](CCCCN)NC(=O)[C@H](CCCNC(=N)N)NC(=O)[C@H](Cc1ccccc1)NC(=O)[C@H](Cc1ccccc1)NC(=O)[C@H](CC(=O)O)NC(=O)CNC(=O)[C@H](CC(C)C)NC(=O)[C@@H](N)CC(C)C)C(=O)NCC(=O)N[C@@H](CCCCN)C(=O)N[C@@H](CCC(=O)O)C(=O)N[C@@H](Cc1ccccc1)C(=O)N[C@@H](CCCCN)C(=O)N[C@@H](CCCNC(=N)N)C(=O)N[C@H](C(=O)N[C@H](C(=O)N[C@@H](CCC(N)=O)C(=O)N[C@@H](CCCNC(=N)N)C(=O)N[C@@H](C)C(=O)N[C@@H](CCCCN)C(=O)N[C@@H](CC(=O)O)C(=O)N[C@@H](Cc1ccccc1)C(=O)N[C@@H](CC(C)C)C(=O)N[C@@H](CCCNC(=N)N)C(=O)N[C@@H](CC(N)=O)C(=O)N[C@@H](CC(C)C)C(=O)N[C@H](C(=O)N1CCC[C@H]1C(=O)N[C@@H](CCCNC(=N)N)C(=O)O)C(C)C)C(C)C)[C@@H](C)CC [LL-34—I24A] (H-LLGDFFRKSKEKIGKEFKRIVQRAKDFLRNLVPR-OH)
[1]
  Action against Gram-negative E. coli: little action
[2]
  Gene expression of IL-6 and CXCL10 in mouse ears: significantly reduced
  Mast cells in mouse ear skin (flow cytometry): similarly increased mast cells
  Macrophage and neutrophil recruitment in mouse ear skin (flow cytometry): significant reduction in macrophage and neutrophil recruitment

## CC[C@H](C)[C@H](NC(=O)[C@H](CCCCN)NC(=O)[C@H](CCC(=O)O)NC(=O)[C@H](CCCCN)NC(=O)[C@H](CO)NC(=O)[C@H](CCCCN)NC(=O)[C@H](CCCNC(=N)N)NC(=O)[C@H](Cc1ccccc1)NC(=O)[C@H](Cc1ccccc1)NC(=O)[C@H](CC(=O)O)NC(=O)CNC(=O)[C@H](CC(C)C)NC(=O)[C@@H](N)CC(C)C)C(=O)NCC(=O)N[C@@H](CCCCN)C(=O)N[C@@H](CCC(=O)O)C(=O)N[C@@H](Cc1ccccc1)C(=O)N[C@@H](CCCCN)C(=O)N[C@@H](CCCNC(=N)N)C(=O)N[C@H](C(=O)N[C@H](C(=O)N[C@@H](CCC(N)=O)C(=O)N[C@@H](CCCNC(=N)N)C(=O)N[C@H](C(=O)N[C@@H](CCCCN)C(=O)N[C@@H](CC(=O)O)C(=O)N[C@@H](Cc1ccccc1)C(=O)N[C@@H](CC(C)C)C(=O)N[C@@H](CCCNC(=N)N)C(=O)N[C@@H](CC(N)=O)C(=O)N[C@@H](C)C(=O)N[C@H](C(=O)N1CCC[C@H]1C(=O)N[C@@H](CCCNC(=N)N)C(=O)O)C(C)C)[C@@H](C)CC)C(C)C)[C@@H](C)CC [LL-34—L31A] (H-LLGDFFRKSKEKIGKEFKRIVQRIKDFLRNAVPR-OH)
[1]
  Action against Gram-negative E. coli: little action
[2]
  Gene expression of IL-6 and CXCL10 in mouse ears: significantly reduced
  Mast cells in mouse ear skin (flow cytometry): significant decrease in mast cell number
  Macrophage and neutrophil recruitment in mouse ear skin (flow cytometry): significant reduction in macrophage and neutrophil recruitment
